Reference: paper PMC11676667, “Pharmacokinetics of Oral Cannabinoid Δ8-Tetrahydrocannabivarin and Its Main Metabolites in Healthy Participants” (Pharmaceuticals, 2024)

Test: Plasma pharmacokinetics after single oral dose of Δ8-THCV in MCT oil (LC-MS/MS, non-compartmental analysis)
Assay type: in vivo, human
Design: Clast (last quantifiable concentration): unit not given here
Details: for Clast (last quantifiable concentration) / tlast (time to last quantifiable concentration) / concentration at 0.5 h / concentration at 1 h / concentration at 2 h / concentration at 4 h / concentration at 6 h / concentration at 8 h: plasma; for plasma concentration: Predose; for concentration at 0.5 h / concentration at 1 h / concentration at 2 h / concentration at 4 h / concentration at 6 h / concentration at 8 h: human, oral
Method: The study was a two-phase, dose-ranging, placebo-controlled trial in 21 healthy participants to assess the safety, tolerability, PK, and PD of an oral formulation of Δ8-THCV. A detailed description of the study was published elsewhere. The study product was a medium-chain triglyceride (MCT) oil oral formulation of Δ8-THCV at a concentration of 50 mg/mL. […] MCT oil was used as placebo.
Twenty-one participants were enrolled in the clinical study and plasma samples from 15 participants were sent to our laboratory for pharmacokinetic evaluation. Of these, 3 participants were enrolled in Phase 1, an unblinded, placebo-controlled, single ascending dose design and 12 were enrolled in Phase 2, a double-blind, randomized, placebo-controlled, within-participant crossover design. At each study session, participants received one of the following oral doses: placebo, 12.5 mg, 25 mg, 50 mg, 100 mg, and 200 mg of the aforementioned Δ8-THCV formulation in MCT. Study visits were separated by a washout period of a minimum of one week and maximum of 28 days. Participants entered the research facility the night before the session and received the study product in the morning after a standardized high-fat, high-calorie breakfast. PK blood samples included in this analysis were collected prior to dosing and 0.5, 1, 2, 4, 6, and 8 h after dose. Immediately following collection into K2EDTA tubes, blood samples were placed on wet ice, centrifuged, and plasma was immediately frozen at −80 °C until shipment to the bioanalytical laboratory (iC42 Clinical Research and Development, University of Colorado, Aurora, CO, USA) on dry ice.
Plasma samples were analyzed using a validated high-performance liquid chromatography–tandem mass spectrometry (LC-MS/MS) assay. The assay included Δ8-THCV and its main metabolites 11-OH-Δ8-THCV and Δ8-THCV-COOH, Δ9-THCV and its main metabolite Δ9-THCV-COOH, and Δ9-THC and Δ8-THC as well as their main metabolites (Figure 3). The complete list of analyzed compounds and a summary of the key performance parameters of the assay are presented in Appendix A and Table A1 and Table A2. […] For the PK analysis, concentrations below the lower limit of quantification were set to 0 ng/mL. PK parameters were calculated using non-compartmental analysis (Phoenix WinNonlin version 8.4., Certara, Princeton, NJ, USA). Statistical analysis was carried out using GraphPad Prism (version 10, Boston, MA, USA).

[1] = 12.5 mg single oral Δ8-THCV in MCT oil, Mean (±SD)
[2] = 12.5 mg single oral Δ8-THCV in MCT oil, Median (Range)
[3] = 25 mg single oral Δ8-THCV in MCT oil, Mean (±SD)
[4] = 25 mg single oral Δ8-THCV in MCT oil, Median (Range)
[5] = 50 mg single oral Δ8-THCV in MCT oil, Mean (±SD)
[6] = 50 mg single oral Δ8-THCV in MCT oil, Median (Range)
[7] = 100 mg single oral Δ8-THCV in MCT oil, Mean (±SD)
[8] = 100 mg single oral Δ8-THCV in MCT oil, Median (Range)
[9] = 200 mg single oral Δ8-THCV in MCT oil, Mean (±SD)
[10] = 200 mg single oral Δ8-THCV in MCT oil, Median (Range)
[11] = 12.5 mg, 12.5 mg Δ8-THCV dose, Mean (SD, %CV)
[12] = 12.5 mg, 12.5 mg Δ8-THCV dose, Median (IQ Range)
[13] = 25 mg, 25 mg Δ8-THCV dose, Mean (SD, %CV)
[14] = 25 mg, 25 mg Δ8-THCV dose, Median (IQ Range)
[15] = 50 mg, 50 mg Δ8-THCV dose, Mean (SD, %CV)
[16] = 50 mg, 50 mg Δ8-THCV dose, Median (IQ Range)

CCCc1cc(O)c2c(c1)OC(C)(C)[C@@H]1CC=C(C(=O)O)C[C@@H]21 [Δ8-THCV-COOH, 11-nor-9-carboxy-Δ8-THCV]
Clast (last quantifiable concentration) [1]: 46.8 (±23)
tlast (time to last quantifiable concentration) [1]: 8 (±0)
Clast (last quantifiable concentration) [2]: 38.2 (20.1–102)
tlast (time to last quantifiable concentration) [2]: 8 (8–8)
Clast (last quantifiable concentration) [3]: 71.6 (±33.8)
tlast (time to last quantifiable concentration) [3]: 8 (±0)
Clast (last quantifiable concentration) [4]: 78.3 (25.5–146)
tlast (time to last quantifiable concentration) [4]: 8 (8–8)
Clast (last quantifiable concentration) [5]: 166 (±60.3)
tlast (time to last quantifiable concentration) [5]: 8 (±0)
Clast (last quantifiable concentration) [6]: 148 (78.9–264)
tlast (time to last quantifiable concentration) [6]: 8 (8–8)
Clast (last quantifiable concentration) [7]: 319 (±118)
tlast (time to last quantifiable concentration) [7]: 8 (±0)
Clast (last quantifiable concentration) [8]: 304 (153–590)
tlast (time to last quantifiable concentration) [8]: 8 (8–8)
Clast (last quantifiable concentration) [9]: 917 (±582)
tlast (time to last quantifiable concentration) [9]: 8 (±0)
Clast (last quantifiable concentration) [10]: 855 (364–2402)
tlast (time to last quantifiable concentration) [10]: 8 (8–8)
plasma concentration (12.5 mg Δ8-THCV dose, Mean (SD, %CV)): 0.2 (±0.4, 267) ng/mL
plasma concentration (12.5 mg Δ8-THCV dose, Median (IQ Range)): 0 (0–0) ng/mL
plasma concentration (25 mg Δ8-THCV dose, Mean (SD, %CV)): 0.3 (±1, 374) ng/mL
plasma concentration (25 mg Δ8-THCV dose, Median (IQ Range)): 0 (0–0) ng/mL
plasma concentration (50 mg Δ8-THCV dose, Mean (SD, %CV)): 0.8 (±1.6, 187) ng/mL
plasma concentration (50 mg Δ8-THCV dose, Median (IQ Range)): 0 (0–0.9) ng/mL
plasma concentration (100 mg Δ8-THCV dose, Mean (SD, %CV)): 0.5 (±0.8, 166) ng/mL
plasma concentration (100 mg Δ8-THCV dose, Median (IQ Range)): 0 (0–1) ng/mL
plasma concentration (200 mg Δ8-THCV dose, Mean (SD, %CV)): 0.1 (±0.3, 387) ng/mL
plasma concentration (200 mg Δ8-THCV dose, Median (IQ Range)): 0 (0–0) ng/mL
median AUClast ratio Δ8-THCV-COOH/Δ8-THCV/11-OH-Δ8-THCV (after the 200 mg dose, Δ8-THCV = 1): 36
concentration at 0.5 h [11]: 0.4 ng/mL
concentration at 0.5 h [12]: 0 ng/mL
concentration at 1 h [11]: 15 ng/mL
concentration at 1 h [12]: 3 ng/mL
concentration at 2 h [11]: 30.1 ng/mL
concentration at 2 h [12]: 15.5 ng/mL
concentration at 4 h [11]: 84.6 ng/mL
concentration at 4 h [12]: 73.1 ng/mL
concentration at 6 h [11]: 62.2 ng/mL
concentration at 6 h [12]: 53.3 ng/mL
concentration at 8 h [11]: 46.8 ng/mL
concentration at 8 h [12]: 38.2 ng/mL
concentration at 0.5 h [13]: 2.7 ng/mL
concentration at 0.5 h [14]: 0 ng/mL
concentration at 1 h [13]: 28.5 ng/mL
concentration at 1 h [14]: 7.1 ng/mL
concentration at 2 h [13]: 54.6 ng/mL
concentration at 2 h [14]: 55.6 ng/mL
concentration at 4 h [13]: 136 ng/mL
concentration at 4 h [14]: 108 ng/mL
concentration at 6 h [13]: 96.3 ng/mL
concentration at 6 h [14]: 82.6 ng/mL
concentration at 8 h [13]: 71.6 ng/mL
concentration at 8 h [14]: 78.3 ng/mL
concentration at 0.5 h [15]: 4.7 ng/mL
concentration at 0.5 h [16]: 1.3 ng/mL
concentration at 1 h [15]: 27.3 ng/mL
concentration at 1 h [16]: 4.8 ng/mL
concentration at 2 h [15]: 84.1 ng/mL
concentration at 2 h [16]: 26.5 ng/mL
concentration at 4 h [15]: 214 ng/mL
concentration at 4 h [16]: 177 ng/mL
concentration at 6 h [15]: 233 ng/mL
concentration at 6 h [16]: 200 ng/mL
concentration at 8 h [15]: 166 ng/mL
concentration at 8 h [16]: 148 ng/mL
concentration at 0.5 h (100 mg, 100 mg Δ8-THCV dose, Mean (SD, %CV)): 13 ng/mL
